In article PMC3056768, “Conjugation to the Cell-Penetrating Peptide TAT Potentiates the Photodynamic Effect of Carboxytetramethylrhodamine” (PLoS ONE, 2011):
Entries after “also recorded” stand apart in the source; their conditions may differ.

How the values were obtained:
Type in all cases: cell-based, human
[1] = test system: HeLa cells; assay: Photo-induced activity as a function of time in the endocytic pathway (endocytic degradation); conditions: 3 µM 1 h, washed, read-out of endocytic degradation
Method: One would expect that TMR-TAT would accumulate within late endosomes and lysosomes over time and that the TAT moiety might be degraded by proteases present in these organelles. If TAT is required for the lytic activity of TMR-TAT, degradation of the peptide should therefore abolish the activity of the compound. On the other hand, riTAT should be resistant to proteolysis and its lytic activity should not be dependent on the incubation time. HeLa cells were treated with TMR-TAT or TMR-riTAT for 1 hour to allow for endocytosis. The cells were then washed and incubated for an additional 1, 4, or 8 hours in L-15 media to allow for the accumulation of the endocytosed peptides into late endosomes and lysosomes. The cells were then observed under the microscope and treated with light as described in the previous paragraph.
Figure 3 Degradation of TMR-TAT in endocytic organelles abolishes photo-induced endosomal release and photocytotoxicity. HeLa cells were incubated with TMR-TAT or TMR-riTAT (3 µM) for 1 h, washed, and incubated at 37°C for an additional 1, 4 or 8 hours. […] The histogram represents the average percentage of cells stained by SYTOX® Blue after peptide and light treatment (the number of cells examined is at least 3000) and the error bars represent the standard deviation (experiments were reproduced at least 3 times).

[2] = test system: HeLa cells; assay: Photo-induced endosomal release (fluorescence imaging)
Method: (§1) HeLa (human cervical adenocarcinoma), COS-7 (SV40 transformed African green monkey kidney fibroblast-like cell line) were obtained from ATCC. COLO 316 (human ovarian carcinoma) were obtained from Robert Burghardt (Department of Veterinary Integrative Biosciences, Texas A&M University). Cells were cultured in DMEM supplemented with 10% fetal bovine serum (FBS) and maintained at 37°C in a humidified environment with 5% CO2. Cells were plated in 8-well dishes so that the cells were 70% confluent after 24 h, washed 3 times with L-15 media, incubated with 3 to 10 µM peptides at 37°C for 1 h, washed 3 times with L-15, and imaged. Alternatively, cells were incubated in L-15 at 4°C to inhibit the endocytic uptake of peptides. In this case, cells were imaged with the peptide still present in solution and the low temperature was maintained for the entire duration of imaging. For photosensitization, cells were exposed to light (λex = 560±20 nm) for the indicated time points. Plasma membrane disruption was detected by addition of the cell-impermeable DNA stain SYTOX Blue (5 µM) during or after photosensitization.
Ten to twenty images were acquired for each experiment.
The effect of light irradiation on cells that have endocytosed TMR-TAT was first investigated. HeLa cells were incubated in the presence of TMR-TAT (3 µM) for 1 hour at 37°C. After washing the cells, the sample was placed on a microscope and the cellular distribution of the peptide was assessed by fluorescence imaging. […] Within seconds, the content of many endosomes was released into the cell and the peptides were distributed throughout the cell. The peptide also accumulated at the nucleoli, a known effect of TAT [7]. […] The viability of non-irradiated cells was, in contrast, not affected by TMR-TAT (Fig. 2B); we found the cytotoxicity of the peptide to be negligible in the absence of light at concentrations up to 25 µM (supporting information Fig. S1).

[3] = test system: HeLa cells; assay: Endocytic uptake (fluorescence of endocytic organelles); conditions: 1 h at 37°C, washed, fluorescence imaging (TMR-TAT 3 µM; TMR-K9 higher concentration)
Method: as §1
Supplementary file pone.0017732.s003.tif: Figure S3 Comparison of the fluorescence intensity of endosomes containing TMR-TAT (incubation at 3 µM) or TMR-K9 (incubation at 10 µM) in the images presented in Figure 1. Imaging was performed in both cases under identical conditions. The fluorescence intensities of all endocytic organelles was measured the Slidebook software. […] (TIF) Click here for additional data file.

CN(C)c1ccc2c(c1)Oc1cc(N(C)C)ccc1C21OC(=O)c2cc(C(=O)NCC(=O)N[C@@H](CCCNC(=N)N)C(=O)N[C@@H](CCCCN)C(=O)N[C@@H](CCCCN)C(=O)N[C@@H](CCCNC(=N)N)C(=O)N[C@@H](CCCNC(=N)N)C(=O)N[C@@H](CCC(N)=O)C(=O)N[C@@H](CCCNC(=N)N)C(=O)N[C@@H](CCCNC(=N)N)C(=O)N[C@@H](CCCNC(=N)N)C(=O)NCC(N)=O)ccc21 [TMR-TAT]
photo-induced endosomal release and cell-death after additional incubation ([1]; additional 1 hour at 37°C in L-15 before irradiation): observed
photo-induced endosomal release and cell-death after additional incubation ([1]; additional 4 h at 37°C in L-15 before irradiation): reduced
photo-induced endosomal release and cell-death after additional incubation ([1]; additional 8 h at 37°C in L-15 before irradiation): completely abolished
endosomal release on exposure to light of wavelengths not absorbed by TMR ([2]; e.g. 436 or 470 nm): No endosomal release
photo-induced endosomal release (photoendosomolytic activity) at 560 nm ([2]; incubation 1 h 37°C (3 µM; TMR-K9 10 µM), washed, irradiated at 560±20 nm): release of the fluorescent peptides from endosomes into the cytosol; also recorded: escape of TMR-TAT from endocytic organelles into the cytosol
endocytic uptake by cells [3]: punctate intracellular distribution
